Data as given in PMC8445441, “Elucidating the mechanism by which synthetic helper peptides sensitize Pseudomonas aeruginosa to multiple antibiotics” (PLoS Pathogens, 2021).
Read-outs that look alike come from different tables or passages of the source.

Tests used:
[1] = system: clinical P. aeruginosa isolates; assay: microbe, parasite or virus in culture; details: Pseudomonas aeruginosa, 18 h, antibiotic alone
Procedure, shortened: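 Broth microdilution per CLSI in MHB, two-fold drug dilutions mixed with an equal volume of bacteria at about 1 × 10^6 CFU/mL. After 18 h at 37 °C, MIC taken as the lowest concentration with no visible growth; run in triplicate.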

[2] = system: P. aeruginosa AUMC-Pa-4; assay: microbe, parasite or virus in culture; details: for FICI: antibiotic + D-11 (MICb/MICbc 128/4); for MICac: MIC of the antibiotic in the combination: with D-11 at MICbc 4
Procedure, shortened: (§1)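 Broth microdilution per CLSI in MHB: two-fold drug dilutions mixed with an equal volume of bacterial suspension at approximately 1 × 10^6 CFU/mL, incubated 18 h at 37 °C. MIC was the lowest concentration with no visible growth; triplicate runs.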

[3] = system: P. aeruginosa PAO1; assay: microbe, parasite or virus in culture; details: PAO1; for MIC: Pseudomonas aeruginosa, PAO1, 18 h, read-out: MICa: the MIC of antibiotics, S3 Table, antibiotic alone; for FICI / MICac: the MIC for the antibiotic in the combination: S3 Table
Procedure, shortened: as §1

[4] = system: P. aeruginosa AUMC-Pa-3; assay: microbe, parasite or virus in culture; details: for MIC: Pseudomonas aeruginosa, AUMCPA3, 18 h, read-out: MICa: MIC of the antibiotic; for FICI / MICac: MIC of the antibiotic in the combination: strain AUMC-Pa-3; for FICI: antibiotic + D-11 (MICb/MICbc 128/4); for MICac: MIC of the antibiotic in the combination: with D-11 at MICbc 4, unit not given
Procedure, shortened: as §1

[5] = system: P. aeruginosa AUMC-Pa-6; assay: microbe, parasite or virus in culture; details: for FICI: antibiotic + D-11 (MICb/MICbc 64/4); for MICac: MIC of the antibiotic in the combination: with D-11 at MICbc 4
Procedure, shortened: as §1

[6] = system: P. aeruginosa AUMC-Pa-5; assay: microbe, parasite or virus in culture; details: for FICI: antibiotic + D-11 (MICb/MICbc 64/4); for MICac: MIC of the antibiotic in the combination: with D-11 at MICbc 4
Procedure, shortened: as §1

[7] = system: P. aeruginosa HM-214; details: strain HM-214; antibiotic + D-11 (MICb/MICbc 128/4)
Procedure, shortened: as §1

[8] = system: P. aeruginosa PAK; assay: microbe, parasite or virus in culture; design: MICa: MIC of the antibiotic / MICac: MIC of the antibiotic in the combination: unit not given beside the values; details: for MIC: Pseudomonas aeruginosa, 18 h, read-out: MICa: MIC of the antibiotic; for FICI / MICac: MIC of the antibiotic in the combination: strain PAK; for FICI: antibiotic + D-11 (MICb/MICbc 64/4); for MICac: MIC of the antibiotic in the combination: with D-11 at MICbc 4, unit not given
Procedure, shortened: as §1

[9] = system: P. aeruginosa ATCC27853; assay: microbe, parasite or virus in culture; design: MICa: MIC of the antibiotic / MICac: MIC of the antibiotic in the combination: unit not given beside the values; details: for MIC: Pseudomonas aeruginosa, ATCC27853, 18 h, read-out: MICa: MIC of the antibiotic; for FICI / MICac: MIC of the antibiotic in the combination: strain ATCC27853; for FICI: antibiotic + D-11 (MICb/MICbc 32/4); for MICac: MIC of the antibiotic in the combination: with D-11 at MICbc 4, unit not given
Procedure, shortened: as §1

[10] = system: P. aeruginosa NR-31041; assay: microbe, parasite or virus in culture; design: MICa: MIC of the antibiotic / MICac: MIC of the antibiotic in the combination: unit not given beside the values; details: for MIC: Pseudomonas aeruginosa, NR31041, 18 h, read-out: MICa: MIC of the antibiotic; for FICI / MICac: MIC of the antibiotic in the combination: strain NR-31041; for FICI: antibiotic + D-11 (MICb/MICbc 64/4); for MICac: MIC of the antibiotic in the combination: with D-11 at MICbc 4, unit not given
Procedure, shortened: as §1

[11] = system: P. aeruginosa PA14; assay: microbe, parasite or virus in culture; design: MICa: MIC of the antibiotic / MICac: MIC of the antibiotic in the combination: unit not given beside the values; details: for MIC: Pseudomonas aeruginosa, PA14, 18 h, read-out: MICa: MIC of the antibiotic; for FICI / MICac: MIC of the antibiotic in the combination: strain PA14; for FICI: antibiotic + D-11 (MICb/MICbc 128/4); for MICac: MIC of the antibiotic in the combination: with D-11 at MICbc 4, unit not given
Procedure, shortened: as §1

[12] = system: P. aeruginosa NR-31040; assay: microbe, parasite or virus in culture; design: MICa: MIC of the antibiotic / MICac: MIC of the antibiotic in the combination: unit not given beside the values; details: for FICI: antibiotic + D-11 (MICb/MICbc 128/4); for MICac: MIC of the antibiotic in the combination: with D-11 at MICbc 4
Procedure, shortened: as §1

[13] = system: P. aeruginosa AUMC-Pa-2; details: strain AUMC-Pa-2; antibiotic + D-11 (MICb/MICbc 64/4)
Procedure, shortened: as §1

[14] = system: P. aeruginosa AUMC-Pa-1; details: strain AUMC-Pa-1; antibiotic + D-11 (MICb/MICbc 128/4)
Procedure, shortened: as §1

[15] = read-out: Antibiotic sensibility (MIC) of clinical P. aeruginosa isolate AUMC-Pa-1, strain AUMC-Pa-1
[16] = read-out: Antibiotic sensibility (MIC) of clinical P. aeruginosa isolate AUMC-Pa-2, strain AUMC-Pa-2
[17] = read-out: Antibiotic sensibility (MIC) of clinical P. aeruginosa isolate AUMC-Pa-3, strain AUMC-Pa-3
[18] = read-out: Antibiotic sensibility (MIC) of clinical P. aeruginosa isolate AUMC-Pa-4, strain AUMC-Pa-4
[19] = read-out: Antibiotic sensibility (MIC) of clinical P. aeruginosa isolate AUMC-Pa-5, strain AUMC-Pa-5
[20] = read-out: Antibiotic sensibility (MIC) of clinical P. aeruginosa isolate AUMC-Pa-6, strain AUMC-Pa-6
[21] = read-out: Antibiotic sensibility (MIC) of clinical P. aeruginosa isolate HM-214, strain HM-214
[22] = read-out: Antibiotic sensibility (MIC) of clinical P. aeruginosa isolate NR-31040, strain NR-31040
[23] = read-out: Antibiotic sensibility (MIC) of clinical P. aeruginosa isolate NR-31041, strain NR-31041
[24] = strain AUMC-Pa-4, unit not given
[25] = strain AUMC-Pa-6, unit not given
[26] = strain AUMC-Pa-5, unit not given
[27] = strain NR-31040, unit not given

CO[C@H]1/C=C/O[C@@]2(C)Oc3c(C)c(O)c4c(O)c(c5c(nc6cc(C)ccn65)c4c3C2=O)NC(=O)/C(C)=C\C=C\[C@H](C)[C@H](O)[C@@H](C)[C@@H](O)[C@@H](C)[C@H](OC(C)=O)[C@@H]1C [Rifaximin]
MIC [1, 15]: 32 µM
MIC [1, 16]: 8 µM
MIC [1, 17]: 8 µM
MIC [1, 18]: 8 µM
MIC [1, 19]: 32 µM
MIC [1, 20]: 16 µM
MIC [1, 21]: 8 µM
MIC [1, 22]: 16 µM
MIC [1, 23]: 16 µM
FICI ([2]; strain AUMC-Pa-4): 0.281
MICa: MIC of the antibiotic ([2]; strain AUMC-Pa-4, antibiotic alone, unit not given): 8
MICac: MIC of the antibiotic in the combination [2, 24]: 2
MIC [3]: 16 µM
FICI ([3]; antibiotic + 2 μM D-11): 0.066
FICI ([3]; antibiotic + 4 μM D-11): 0.127
MICac: the MIC for the antibiotic in the combination ([3]; with 2 μM D-11): 0.0625 µM
MICac: the MIC for the antibiotic in the combination ([3]; with 4 μM D-11): 0.03125 µM
MIC [4]: 8 µM
FICI [4]: 0.063
MICac: MIC of the antibiotic in the combination [4]: 0.25
FICI ([5]; strain AUMC-Pa-6): 0.313
MICa: MIC of the antibiotic ([5]; strain AUMC-Pa-6, antibiotic alone, unit not given): 16
MICac: MIC of the antibiotic in the combination [5, 25]: 4
FICI ([6]; strain AUMC-Pa-5): 0.313
MICa: MIC of the antibiotic ([6]; strain AUMC-Pa-5, antibiotic alone, unit not given): 32
MICac: MIC of the antibiotic in the combination [6, 26]: 8
FICI [7]: 0.063
MIC [8]: 16 µM
FICI [8]: 0.094
MICac: MIC of the antibiotic in the combination [8]: 0.5
MIC [9]: 16 µM
FICI [9]: 0.156
MICac: MIC of the antibiotic in the combination [9]: 0.5
MIC [10]: 16 µM
FICI [10]: 0.078
MICac: MIC of the antibiotic in the combination [10]: 0.25
MIC [11]: > 128 µM
FICI [11]: 0.094
MICac: MIC of the antibiotic in the combination [11]: 16
FICI ([12]; strain NR-31040): 0.094
MICa: MIC of the antibiotic ([12]; strain NR-31040, antibiotic alone, unit not given): 16
MICac: MIC of the antibiotic in the combination [12, 27]: 1
FICI [13]: 0.094
FICI [14]: 0.047

CO[C@@H]1[C@@H](OC(N)=O)[C@@H](O)[C@H](Oc2ccc3c(O)c(NC(=O)c4ccc(O)c(CC=C(C)C)c4)c(=O)oc3c2C)OC1(C)C [Novobiocin]
MIC [1, 15]: > 128 µM
MIC [1, 16]: > 128 µM
MIC [1, 17]: > 128 µM
MIC [1, 18]: > 128 µM
MIC [1, 19]: > 128 µM
MIC [1, 20]: > 128 µM
MIC [1, 21]: > 128 µM
MIC [1, 22]: > 128 µM
MIC [1, 23]: > 128 µM
MIC ([2]; Pseudomonas aeruginosa, AUMCPA4, 18 h, read-out: MICa: MIC of the antibiotic): > 128 µM
FICI ([2]; strain AUMC-Pa-4): 0.531
MICac: MIC of the antibiotic in the combination [2, 24]: >128/128
reduction of the MICs ([3]; in the presence of 4 μM of D-11): 512 fold
MIC [3]: > 128 µM
FICI ([3]; antibiotic + 2 μM D-11): 0.064
MICac: the MIC for the antibiotic in the combination ([3]; with 2 μM D-11): 0.5 µM
MICac: the MIC for the antibiotic in the combination ([3]; with 4 μM D-11): 0.5 µM
MIC [4]: > 128 µM
FICI [4]: 0.033
MICac: MIC of the antibiotic in the combination [4]: 0.5
MIC ([5]; Pseudomonas aeruginosa, AUMCPA6, 18 h, read-out: MICa: MIC of the antibiotic): > 128 µM
FICI ([5]; strain AUMC-Pa-6): 0.563
MICac: MIC of the antibiotic in the combination [5, 25]: >128/128
MIC ([6]; Pseudomonas aeruginosa, AUMCPA5, 18 h, read-out: MICa: MIC of the antibiotic): > 128 µM
FICI ([6]; strain AUMC-Pa-5): 0.563
MICac: MIC of the antibiotic in the combination [6, 26]: >128/128
FICI [7]: 0.531
MIC [8]: > 128 µM
FICI [8]: 0.070
MICac: MIC of the antibiotic in the combination [8]: 2
MIC [9]: > 128 µM
FICI [9]: 0.133
MICac: MIC of the antibiotic in the combination [9]: 2
MIC [10]: > 128 µM
FICI [10]: 0.078
MICac: MIC of the antibiotic in the combination [10]: 4
MIC [11]: > 128 µM
FICI [11]: 0.063
MICac: MIC of the antibiotic in the combination [11]: 8
MIC ([12]; Pseudomonas aeruginosa, NR31040, 18 h, read-out: MICa: MIC of the antibiotic): > 128 µM
FICI ([12]; strain NR-31040): 0.281
MICac: MIC of the antibiotic in the combination [12, 27]: 64
FICI [13]: 0.070
FICI [14]: 0.035
